Each compound was assayed against T1, human parathyroid cell Ca^2+ receptor (hPCaR) (Homo sapiens, UniProt P41180) (assay: [Ca2+]i measurement with fluo-3 in HEK 293 4.0-7 cells stably transfected with hPCaR). Conditions: fluo-3 fluorescence (485/530 nm), effect on [Ca^2+]i.
T1 construct: expressed in transfected cells
T1 sequence (P41180 20-1078): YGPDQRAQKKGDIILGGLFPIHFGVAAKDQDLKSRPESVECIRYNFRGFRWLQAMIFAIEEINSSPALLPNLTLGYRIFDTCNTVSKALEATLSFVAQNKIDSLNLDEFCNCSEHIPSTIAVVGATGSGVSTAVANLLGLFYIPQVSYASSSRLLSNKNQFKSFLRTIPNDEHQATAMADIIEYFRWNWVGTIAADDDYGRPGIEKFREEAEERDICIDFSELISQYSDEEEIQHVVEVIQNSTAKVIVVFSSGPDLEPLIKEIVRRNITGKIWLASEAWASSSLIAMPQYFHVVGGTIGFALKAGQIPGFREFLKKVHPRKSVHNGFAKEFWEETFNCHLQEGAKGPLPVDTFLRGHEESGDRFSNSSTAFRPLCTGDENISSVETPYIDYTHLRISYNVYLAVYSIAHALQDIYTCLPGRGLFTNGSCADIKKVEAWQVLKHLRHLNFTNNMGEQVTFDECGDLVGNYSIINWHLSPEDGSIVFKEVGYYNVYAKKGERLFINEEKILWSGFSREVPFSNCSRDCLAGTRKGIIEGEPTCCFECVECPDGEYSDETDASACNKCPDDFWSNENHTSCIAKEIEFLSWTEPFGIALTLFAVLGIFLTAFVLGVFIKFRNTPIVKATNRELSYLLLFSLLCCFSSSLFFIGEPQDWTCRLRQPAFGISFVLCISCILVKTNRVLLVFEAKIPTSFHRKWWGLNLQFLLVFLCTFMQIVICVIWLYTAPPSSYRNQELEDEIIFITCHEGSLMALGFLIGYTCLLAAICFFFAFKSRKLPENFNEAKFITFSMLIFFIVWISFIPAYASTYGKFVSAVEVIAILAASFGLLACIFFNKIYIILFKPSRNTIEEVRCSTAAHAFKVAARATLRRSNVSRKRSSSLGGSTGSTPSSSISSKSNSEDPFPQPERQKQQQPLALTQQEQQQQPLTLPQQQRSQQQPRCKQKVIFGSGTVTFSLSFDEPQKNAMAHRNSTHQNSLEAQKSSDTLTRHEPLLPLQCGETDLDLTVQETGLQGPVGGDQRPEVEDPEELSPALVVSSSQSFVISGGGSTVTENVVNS
Type: cell-based
Summary of the method: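 HEK 293 cells stably expressing human parathyroid Ca2+ receptor (clone 4.0-7), loaded with 2 μM fluo-3 AM for 30 min at 37 °C in parathyroid cell buffer (pH 7.45) with 1 mM CaCl2 and 0.5% BSA. After compound addition, intracellular Ca2+ followed by fluorescence at 485 nm excitation/530 nm emission.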
`COc1cccc([C@@H](C)NCc2cccc(-c3nc(C)no3)c2)c1` [(1R)-N-((3-(3-methyl-1,2,4-oxadiazol-5-yl)phenyl)methyl)-1-(3-(methyloxy)phenyl)ethanamine] showed an EC50 of at most 10 µM.
`COc1ccc(CN[C@H](C)c2cccc3ccccc23)cc1-c1cnccn1` [(1R)-N-((4-(methyloxy)-3-(2-pyrazinyl)phenyl)methyl)-1-(1-naphthalenyl)ethanamine] was tested, and the EC50 was at most 10 µM.
In the case of `COc1ccc(CNC(C)c2cc(F)cc(F)c2)cc1-c1ccc(C(F)(F)F)cc1` (stereo not shown) [1-(3,5-difluorophenyl)-N-((6-(methyloxy)-4′-(trifluoromethyl)-1,1′-biphenyl-3-yl)methyl)ethanamine], the EC50 is reported as at most 10 µM.
`COc1cccc([C@@H](C)NCc2ccc(OC)c(-c3ccc4c(c3)ncn4C)c2)c1` [(1R)-N-((3-(1-methyl-1H-benzimidazol-5-yl)-4-(methyloxy)phenyl)methyl)-1-(3-(methyloxy)phenyl)ethanamine] gave an EC50 of at most 10 µM.
In the case of `COc1ccc(-c2cc(CN[C@H](C)c3cccc4ccccc34)ccc2OC)cn1` [(1R)-N-((4-(methyloxy)-3-(6-(methyloxy)-3-pyridinyl)phenyl)methyl)-1-(1-naphthalenyl)ethanamine], the EC50 is reported as at most 10 µM.
In the case of `C[C@@H](NCc1ccc(Cl)c(-c2ccc(C(F)(F)F)cc2)c1)c1ccccc1` [(1R)-N-((6-chloro-4′-(trifluoromethyl)-1,1′-biphenyl-3-yl)methyl)-1-phenylethanamine], the EC50 is reported as at most 10 µM.
`COc1cccc([C@@H](C)NCc2ccc(OC)c(-c3cnccn3)c2)c1` [(1R)-1-(3-(methyloxy)phenyl)-N-((4-(methyloxy)-3-(2-pyrazinyl)phenyl)methyl)ethanamine] showed an EC50 of at most 10 µM.
With `COc1ccc(-c2cc(CN[C@H](C)c3ccccc3)ccc2NS(C)(=O)=O)cc1` [N-(4′-(methyloxy)-5-((((1R)-1-phenylethyl)amino)methyl)-1,1′-biphenyl-2-yl)methanesulfonamide] the EC50 was at most 10 µM.
`COc1ccc(-c2cccc(CN[C@H](C)c3ccc4ccccc4c3)c2)cc1` [(1R)-N-((4′-(methyloxy)-1,1′-biphenyl-3-yl)methyl)-1-(2-naphthalenyl)ethanamine] showed an EC50 of at most 10 µM.
`CCOC(=O)c1ccc(-c2cc(CN[C@H](C)c3ccccc3)ccc2OC)cc1` [ethyl 2′-(methyloxy)-5′-((((1R)-1-phenylethyl)amino)methyl)-1,1′-biphenyl-4-carboxylate] was tested, and the EC50 was at most 10 µM.
Compound `COc1cccc([C@@H](C)NCc2ccc(OC)c(-c3ccc(C(F)(F)F)cc3)c2)c1` [(1R)-1-(3-(methyloxy)phenyl)-N-((6-(methyloxy)-4′-(trifluoromethyl)-1,1′-biphenyl-3-yl)methyl)ethanamine] has an EC50 of at most 10 µM.
In the case of `CCNC(=O)Nc1ccc(CN[C@H](C)c2cccc3ccccc23)cc1-c1ccc(OC)cc1` [N-ethyl-N′-(4′-(methyloxy)-5-((((1R)-1-(1-naphthalenyl)ethyl)amino)methyl)-1,1′-biphenyl-2-yl)urea], the EC50 is reported as at most 10 µM.
Compound `COc1cccc([C@@H](C)NCc2cccc(-c3ccoc3)c2)c1` [Example 222, (1R)-N-((3-(3-furanyl)phenyl)methyl)-1-(3-(methyloxy)phenyl)ethanamine] has an EC50 of at most 10 µM.
`C[C@@H](NCc1ccc(C(F)(F)F)c(-c2ccc(C(F)(F)F)cc2)c1)c1ccccc1` [Example 314, (1R)-N-((4′,6-bis(trifluoromethyl)-1,1′-biphenyl-3-yl)methyl)-1-phenylethanamine] showed an EC50 of at most 10 µM.
Compound `COc1ccc(CN[C@H](C)c2ccccc2)cc1-c1cccc(C#N)c1` [2′-(methyloxy)-5′-((((1R)-1-phenylethyl)amino)methyl)-1,1′-biphenyl-3-carbonitrile] has an EC50 of at most 10 µM.
For `COc1ccc(CN[C@H](C)c2ccccc2)cc1-c1ccc(C(N)=O)cc1` [2′-(methyloxy)-5′-((((1R)-1-phenylethyl)amino)methyl)-1,1′-biphenyl-4-carboxamide], the EC50 was at most 10 µM.
Work on `COc1ccc(CN[C@H](C)c2ccccc2)cc1-c1cccc(C(N)=O)c1` [2′-(methyloxy)-5′-((((1R)-1-phenylethyl)amino)methyl)-1,1′-biphenyl-3-carboxamide] yielded an EC50 of at most 10 µM.
For `COc1ccc(CN[C@H](C)c2cccc3ccccc23)cc1-c1csc(C)n1` [(1R)-N-((4-(methyloxy)-3-(2-methyl-1,3-thiazol-4-yl)phenyl)methyl)-1-(1-naphthalenyl)ethanamine], the EC50 was at most 10 µM.
In the case of `COc1ccc(CN[C@H](C)c2cccc3ccccc23)cc1-c1ccc2nccn2c1` [(1R)-N-((3-imidazo[1,2-a]pyridin-6-yl-4-(methyloxy)phenyl)methyl)-1-(1-naphthalenyl)ethanamine], the EC50 is reported as at most 10 µM.
In the case of `COc1cccc([C@@H](C)NCc2ccc(OC)c(-c3cnc(OCC(F)(F)F)nc3)c2)c1` [(1R)-1-(3-(methyloxy)phenyl)-N-((4-(methyloxy)-3-(2-((2,2,2-trifluoroethyl)oxy)-5-pyrimidinyl)phenyl)methyl)ethanamine], the EC50 is reported as at most 10 µM.
`COc1ccc(CN[C@H](C)c2cccc(F)c2)cc1-c1ccc(S(C)(=O)=O)cc1` [(1R)-1-(3-fluorophenyl)-N-((6-(methyloxy)-4′-(methylsulfonyl)-1,1′-biphenyl-3-yl)methyl)ethanamine] gave an EC50 of at most 10 µM.
`COc1ccc(CN[C@H](C)c2ccccc2)cc1-c1cccnc1NCC1CCCO1` (stereo partly drawn) [3-(2-(methyloxy)-5-((((1R)-1-phenylethyl)amino)methyl)phenyl)-N-(tetrahydro-2-furanylmethyl)-2-pyridinamine] showed an EC50 of at most 10 µM.
`COc1ccc(CN[C@H](C)c2cccc3ccccc23)cc1-c1ccc2c(c1)OC(F)(F)O2` [(1R)-N-((3-(2,2-difluoro-1,3-benzodioxol-5-yl)-4-(methyloxy)phenyl)methyl)-1-(1-naphthalenyl)ethanamine] gave an EC50 of at most 10 µM.
Compound `COc1ccc(CN[C@H](C)c2ccccc2)cc1-c1cncnc1` [(1R)-N-((4-(methyloxy)-3-(5-pyrimidinyl)phenyl)methyl)-1-phenylethanamine] has an EC50 of at most 10 µM.
Compound `C[C@@H](NCc1ccc(F)c(-c2ccc(C(F)(F)F)cc2)c1)c1ccccc1` [(1R)-N-((6-fluoro-4′-(trifluoromethyl)-1,1′-biphenyl-3-yl)methyl)-1-phenylethanamine] has an EC50 of at most 10 µM.
With `COc1ccc(-c2cc(CN[C@H](C)c3ccc4ccccc4c3)ccc2OC)nn1` [(1R)-N-((4-(methyloxy)-3-(6-(methyloxy)-3-pyridazinyl)phenyl)methyl)-1-(2-naphthalenyl)ethanamine] the EC50 was at most 10 µM.
Work on `COc1ccc(CN[C@H](C)c2cccc3ccccc23)cc1-c1ccc2oc(C)nc2c1` [(1R)-N-((3-(2-methyl-1,3-benzoxazol-5-yl)-4-(methyloxy)phenyl)methyl)-1-(1-naphthalenyl)ethanamine] yielded an EC50 of at most 10 µM.
For `COc1ccc(CN[C@H](C)c2cccc(F)c2)cc1-c1ccc(F)cc1` [(1R)-N-((4′-fluoro-6-(methyloxy)-1,1′-biphenyl-3-yl)methyl)-1-(3-fluorophenyl)ethanamine], the EC50 was at most 10 µM.
Compound `COc1ccc(-c2cc(CN[C@H](C)c3ccc(C)cc3)ccc2F)cc1` [(1R)-N-((6-fluoro-4′-(methyloxy)-1,1′-biphenyl-3-yl)methyl)-1-(4-methylphenyl)ethanamine] has an EC50 of at most 10 µM.
`COc1cccc([C@@H](C)NCc2ccc(OC)c(-c3ccc(C(N)=O)cc3)c2)c1` [2′-(methyloxy)-5′-((((1R)-1-(3-(methyloxy)phenyl)ethyl)amino)methyl)-1,1′-biphenyl-4-carboxamide] gave an EC50 of at most 10 µM.
`COc1ccc(CN[C@H](C)c2ccc(C)cc2)cc1-c1cnccn1` [(1R)-N-((4-(methyloxy)-3-(2-pyrazinyl)phenyl)methyl)-1-(4-methylphenyl)ethanamine] gave an EC50 of at most 10 µM.
`COc1ccc(CN[C@H](C)c2ccccc2)cc1-c1ccc(Cl)cc1` [(1R)-N-((4′-chloro-6-(methyloxy)-1,1′-biphenyl-3-yl)methyl)-1-phenylethanamine] showed an EC50 of at most 10 µM.
For `COc1ccc(CN[C@H](C)c2cccc3ccccc23)cc1-c1cn(C)cn1` [(1R)-N-((3-(1-methyl-1H-imidazol-4-yl)-4-(methyloxy)phenyl)methyl)-1-(1-naphthalenyl)ethanamine], the EC50 was at most 10 µM.
With `COCCOc1ccc(CN[C@H](C)c2ccccc2)cc1-c1ccc(C(F)(F)F)cc1` [(1R)-N-((6-((2-(methyloxy)ethyl)oxy)-4′-(trifluoromethyl)-1,1′-biphenyl-3-yl)methyl)-1-phenylethanamine] the EC50 was at most 10 µM.
